PubChem BioAssay (NCI)
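Values below derive from 48-hour exposures of cells grown in 96-well plates, with endpoints linearly interpolated between the two concentrations bracketing the appropriate inhibition level. Here, GI50 denotes the concentration required for 50% inhibition of growth. TGI denotes the concentration required for complete inhibition of growth.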

Legend:
Assay in all cases: DTP human tumour cell line panel, 48 h; in the data active = GI50 below about 0.43 µM; inactive = the rest
[1] = tested on: MALME-3M melanoma
[2] = tested on: OVCAR-8 ovarian
[3] = tested on: PC-3 prostate
[4] = tested on: RPMI-8226 leukemia
[5] = tested on: SNB-19 CNS
[6] = tested on: NCI-H23 lung
[7] = tested on: SK-MEL-28 melanoma
[8] = tested on: SF-268 CNS
[9] = tested on: MDA-MB-231 breast
[10] = tested on: SR leukemia
[11] = tested on: MOLT-4 leukemia
[12] = tested on: MDA-MB-468 breast
[13] = tested on: A498 renal
[14] = tested on: SK-OV-3 ovarian
[15] = tested on: A549 NSCLC
[16] = tested on: SF-539 CNS
[17] = tested on: U251 CNS
[18] = tested on: SW-620 colon
[19] = tested on: NCI-H460 lung
[20] = tested on: NCI-H226 lung
[21] = tested on: SN12C renal
[22] = tested on: UACC-62 melanoma
[23] = tested on: SK-MEL-5 melanoma
[24] = tested on: HCC-2998 colon
[25] = tested on: ACHN renal
[26] = tested on: NCI/ADR-RES ovarian
[27] = tested on: HCT-116 colon
[28] = tested on: TK-10 renal
[29] = tested on: DU-145 prostate
[30] = tested on: HOP-92 NSCLC
[31] = tested on: OVCAR-4 ovarian
[32] = tested on: MDA-MB-435
[33] = tested on: K-562 leukemia
[34] = tested on: OVCAR-3 ovarian
[35] = tested on: KM12 colon
[36] = tested on: CAKI-1 renal
[37] = tested on: COLO 205 colon
[38] = tested on: OVCAR-5 ovarian
[39] = tested on: SF-295 CNS
[40] = tested on: NCI-H522 lung
[41] = tested on: HL-60(TB) leukemia
[42] = tested on: HT29 colon
[43] = tested on: RXF 393 renal
[44] = tested on: UACC-257 melanoma
[45] = tested on: 786-0 renal
[46] = tested on: SNB-75 CNS
[47] = tested on: M14 melanoma
[48] = tested on: HCT-15 colon
[49] = tested on: HOP-62 NSCLC
[50] = tested on: CCRF-CEM leukemia
[51] = tested on: SK-MEL-2 melanoma
[52] = tested on: EKVX NSCLC
[53] = tested on: LOX IMVI melanoma
[54] = tested on: UO-31 renal
[55] = tested on: HS 578T breast

COc1cc(-c2ccc3ncnc(N4CCc5ccc(Cl)cc54)c3c2)cnc1Cl
95.5 µM: TGI [31]
83.6 µM: TGI [5]
7 µM: TGI [46]
12.7 µM: TGI [36]
81.3 µM: TGI [49]
9.36 µM: TGI [23]
10.1 µM: TGI [40]
4.47 µM: TGI [12]
46.7 µM: TGI [7]
27.7 µM: TGI [45]
29.5 µM: TGI [53]
7.16 µM: TGI [13]
43.3 µM: TGI [1]
11.6 µM: TGI [16]
> 100 µM: TGI [2] | TGI [3] | TGI [4] | TGI [6] | TGI [8] | TGI [10] | TGI [11] | TGI [14] | TGI [15] | TGI [17] | TGI [18] | TGI [19] | TGI [21] | TGI [22] | TGI [24] | TGI [26] | TGI [27] | TGI [29] | TGI [30] | TGI [32] | TGI [33] | TGI [34] | TGI [35] | TGI [37] | TGI [38] | TGI [44] | TGI [47] | TGI [48] | TGI [50] | TGI [51] | TGI [52] | TGI [54]
24.6 µM: TGI [39]
14.4 µM: TGI [25]
21.5 µM: TGI [20]
16.4 µM: TGI [42]
7.87 µM: TGI [28]
9.97 µM: TGI [41]
6.77 µM: TGI [43]
inactive: GI50 [1] 4.6 µM | GI50 [2] 3.64 µM | GI50 [3] 2.52 µM | GI50 [4] 4.44 µM | GI50 [5] 3.78 µM | GI50 [6] 2.91 µM | GI50 [7] 3.84 µM | GI50 [8] 3.29 µM | GI50 [9] 3.94 µM | GI50 [10] 4.08 µM | GI50 [11] 3.36 µM | GI50 [12] 1.26 µM | GI50 [13] 1.54 µM | GI50 [14] 3.84 µM | GI50 [15] 3.03 µM | GI50 [16] 3.06 µM | GI50 [17] 4.71 µM | GI50 [18] 3.06 µM | GI50 [19] 2.95 µM | GI50 [20] 2.39 µM | GI50 [21] 3.34 µM | GI50 [22] 2.25 µM | GI50 [23] 2.15 µM | GI50 [24] 3.46 µM | GI50 [25] 2.4 µM | GI50 [26] 2.23 µM | GI50 [27] 2.89 µM | GI50 [28] 2.12 µM | GI50 [29] 3.21 µM | GI50 [30] 2.11 µM | GI50 [31] 3.12 µM | GI50 [32] 3.32 µM | GI50 [33] 3.83 µM | GI50 [34] 2.49 µM | GI50 [35] 3.99 µM | GI50 [36] 1.66 µM | GI50 [37] 4.21 µM | GI50 [38] 3.29 µM | GI50 [39] 2.62 µM | GI50 [40] 2.12 µM | GI50 [41] 2.1 µM | GI50 [42] 2.88 µM | GI50 [43] 1.78 µM | GI50 [44] 6.32 µM | GI50 [45] 3.22 µM | GI50 [46] 1.56 µM | GI50 [47] 3.88 µM | GI50 [48] 3.17 µM | GI50 [49] 6.12 µM | GI50 [50] 5.7 µM | GI50 [51] 5.12 µM | GI50 [52] 1.94 µM | GI50 [53] 2.97 µM | GI50 [54] 1.14 µM | GI50 [55] 1.84 µM
7.41 µM: TGI [55]
20.8 µM: TGI [9]
